In US20090208620A1, “Alimentary Compositions and Methods For Metabolic Modulation” (VDF FUTURECEUTICALS, INC., priority 2003, published 2009):

Key:
activated AMPK = assay: Western immunoblot for activated (phospho-Thr172) AMPK in muscle cells; type: cell-based, mouse; conditions: cells treated 30 minutes at 37° C
Protocol: The levels of Glut-4, activated AMPK and activated Akt were measured in mouse muscle cells C2C12 (from ATTC) and in primary culture of human skeletal muscle cells (Clonetics, Inc.) using Western immunoblotting. C2C12 cells were plated at 1.5×1-exp5 cells per mL/well (12-well plate) in standard cell culture medium (DMEM supplemented with 10% fetal bovine serum (FBS), 25 mM glucose, 20 mM Hepes, 4 mM glutamine and 2 mM sodium pyruvate. 48 hrs after the plating, medium was changed to differentiation medium (DMEM supplemented with 5 mM of glucose and 0.5% of FBS) for next 3-4 days to stimulate the formation of myotubes. Three hours before the treatment with selected agents, cells were washed with PBS and transferred to PBS supplemented with 5 mM of glucose.
Human skeletal muscle cells (HSKM) were cultured in SKBM-2 mediums provided by Clonetics. 48 hrs after cell plating, medium was changed to SKBM medium to stimulate differentiation of the cells to myotubes. When differentiated, the myotubes were transferred to PBS supplemented with 5 mM glucose for three hrs before the treatment.
Analysis of C2C12 cells for the level of activated AMPK, Akt and the level of GLUT-4 was performed in the same experimental system. The cells were treated for 30 minutes at 37° C. […] Subsequently, 20 μg per sample of sample protein was used for Western analysis using NuPage 10% Bis/Tris gels (Invitrogen). After exposure of membranes to primary and secondary antibodies AMPK, AKT or Glut-4 was detected using ECL-Plus (Amersham) following producer's instruction. Chemilumiscent signals were detected by using ChemiDoc system from Biorad. Intensity of detected signals were analyzed and measured using Quantity One software (Biorad). Alternatively, the level of phosphorylated AMPK was detected using ECL kit from Amersham and short exposure to Kodak films.
Experimental setup: Cell Culture was followed by treatment with selected contemplated compounds, which was followed by cell lysis and western blot analysis for AMPK, Akt, GLUT4, total AMPK, and total Akt. Signals were acquired accordingly.

[1] = Oral availability and serum level of DHZ by ELISA; type: in vivo, C57/B1 mice; conditions: 100 microgram/dose, mice; for concentration at 0 minutes / concentration at 15 minutes / concentration at 30 minutes / concentration at 60 minutes / concentration at 120 minutes: C57/B1, mouse, serum
Protocol: C57/B1 mice were treated with 100 microgram/dose of dihydrozeatin (DHZ) for 0, 15, 30, 60 and 120 minutes following oral or i.p. administration. Serum level of DHZ in pg/ml was measured using DHZ Elisa following procedures as enclosed in a commercially available test kit (e.g., dihydrozeatin competitive ELISA test system for plant growth hormone detection, Agdia, Elkhard, Ind.).

In the case of `CC(CO)CCNc1ncnc2nc[nH]c12` (stereo not drawn) [Dihydro-Zeatin, dihydrozeatin], the “FOLD AMPK ACTIVATION (OVER CONTROL)” value (activated AMPK; 0.5 microM) is reported as 2.25 fold, the “FOLD AMPK ACTIVATION (OVER CONTROL)” value (activated AMPK; 5.0 microM) is reported as 0.59 fold and the “FOLD AMPK ACTIVATION (OVER CONTROL)” value (activated AMPK; 50.0 microM) is reported as 0.88 fold. For the same compound, the concentration at 0 minutes ([1]; ip) was 0.3 ng/mL, the concentration at 15 minutes ([1]; ip) was 1.15 ng/mL and the concentration at 30 minutes ([1]; ip) was 0.991 ng/mL. It also gave a concentration at 60 minutes ([1]; ip) of 0.746 ng/mL, a concentration at 120 minutes ([1]; ip) of 0.471 ng/mL and a concentration at 0 minutes ([1]; Oral) of 0.3 ng/mL. It also gave a concentration at 15 minutes ([1]; Oral) of 0.952 ng/mL, a concentration at 30 minutes ([1]; Oral) of 1.02 ng/mL and a concentration at 60 minutes ([1]; Oral) of 0.961 ng/mL. For the same compound, the concentration at 120 minutes ([1]; Oral) was 0.853 ng/mL, the “oral bioavailability (in words)” value [1] was “readily bioavailable from the oral route” and the “time over which significant serum concentrations can be maintained” value [1] was “at least 120 minutes”.
